Patent publication US10821115B2, “Compounds that inhibit Mcl-1 protein” (priority 2017, dated 2020)
Where two headings read alike, the source gives them in different places.

Columns and labels:
[1] = biological target: recombinant human Mcl-1 (residues 171-327) / Bim interaction (Homo sapiens (Human), UniProt Q07820); assay: biochemical; format: binding
[2] = test system: human multiple myeloma cell line, OPM-2; assay: Cell viability assay (OPM-2 10 FBS), CellTiter-Glo; format: cell-based; conditions: Homo sapiens, OPM-2, 16 h, read-out: OPM-2 10% FBS IC50 IP, OPM-2 cells, 10% FBS, 16 h, CellTiter-Glo
How it was run: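 Serially diluted test compounds are incubated 16 h with cells (3000/well) in RPMI 1640 supplemented with 10% FBS. Viability is then measured by luminescence and IC50 calculated by 4-parameter logistic fit.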

[3] = TR-FRET, Mcl-1(171-327) / biotin-Bim (51-76), read-out: Mcl-1 HTRF IC50
[4] = 0.1 nM Mcl-1(171-327), 0.05 nM biotin-Bim (51-76), read-out: Mcl-1 HTRF IC50

Sequence of recombinant human Mcl-1 (residues 171-327) / Bim interaction (Q07820 171-327): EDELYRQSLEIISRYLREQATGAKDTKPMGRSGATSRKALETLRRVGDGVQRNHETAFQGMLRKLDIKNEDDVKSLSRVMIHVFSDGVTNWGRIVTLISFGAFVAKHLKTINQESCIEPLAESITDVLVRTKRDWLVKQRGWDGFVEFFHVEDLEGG

| SMILES | IC50 [1, 3] [nM] | IC50 [1, 4] [nM] | also measured |
| --- | --- | --- | --- |
| C[C@@H]1[C@@H](C)C/C=C/[C@@](O)(CS(=O)(=O)N(C)C)[C@@H]2CC[C@H]2CN2C[C@@]3(CCCc4cc(Cl)ccc43)COc3ccc(cc32)C(=O)NS1(=O)=O (single isomer, unassigned) [Example 100020] | – | – | IC50 ([1]; read-out: Mcl-1 HTRF IC50): 0.032 nM |
| C[C@H]1CC/C=C/[C@](C)(O)[C@@H]2CC[C@H]2CN2C[C@@]3(CCCc4cc(Cl)ccc43)COc3ccc(cc32)C(=O)NS1(=O)=O (single isomer, unassigned) [Example 100028] | 1.26 | – | – |
| C[C@H]1CC/C=C/[C@](C)(O)[C@@H]2CC[C@H]2CN2C[C@@]3(CCCc4cc(Cl)ccc43)COc3ccc(cc32)C(=O)NS1(=O)=O (single isomer, unassigned) [Example 100029] | 8.73 | – | – |
| C[C@H]1CC/C=C/[C@@](C)(O)[C@@H]2CC[C@H]2CN2C[C@@]3(CCCc4cc(Cl)ccc43)COc3ccc(cc32)C(=O)NS1(=O)=O (single isomer, unassigned) [Example 100032] | 0.442 | – | – |
| C[C@@H]1[C@@H](C)C/C=C/[C@](O)(CS(=O)(=O)N(C)C)[C@@H]2CC[C@H]2CN2C[C@@]3(CCCc4cc(Cl)ccc43)COc3ccc(cc32)C(=O)NS1(=O)=O (single isomer, unassigned) [Example 100293] | – | – | IC50 ([1]; Mcl-1 HTRF IC50): 0.522 nM |
| C[C@@H]1CC[C@@H]2CC2[C@](C)(O)[C@@H]2CC[C@H]2CN2C[C@@]3(CCCc4cc(Cl)ccc43)COc3ccc(cc32)C(=O)NS1(=O)=O (stereo in doubt) [Example 100033, (1S,3′R,6′R,7′S,8′S,13′R)-6-chloro-7′-hydroxy-7′,13′-dimethyl-3,4-dihydro-2H,16′H-spiro[naphthalene-1,23′-[21]oxa[14]thia[1,15]diazapentacyclo [15.7.2.0~3,6~.0~8,10~.0~20,25~]hexacosa [17,19,25]trien]-16′-one 14′,14′-dioxide] | 2.81 | – | – |
| C[C@@H]1[C@@H](C)C/C=C/[C@@]2(CN3CCOC[C@H]3CO2)[C@@H]2CC[C@H]2CN2C[C@@]3(CCCc4cc(Cl)ccc43)COc3ccc(cc32)C(=O)NS1(=O)=O [Example 99, (1S,3′R,6′R,7′S,8′E,9a″S,11′S,12′R)-6-chloro-11′,12′-dimethyl-3,4,6″,7″,9″,9a″-hexahydro-1″H,2H,15′H-dispiro[naphthalene-1,22′-[20]oxa[13]thia[1,14]diazatetracyclo[14.7.2.0˜3,6˜.0˜19,24˜]pentacosa[8,16,18,24]tetraene-7′,3″-[1,4]oxazino[3,4-c][1,4]oxazin]-15′-one 13′,13′-dioxide] | – | 0.243 | – |
| CCO[C@@]1(CN2CCN3CCOC[C@@H]3C2)/C=C/C[C@H](C)[C@@H](C)S(=O)(=O)NC(=O)c2ccc3c(c2)N(C[C@@H]2CC[C@H]21)C[C@@]1(CCCc2ccccc21)CO3 [Example 105, (1S,3′R,6′R,7′S,8′E,11′S,12′R)-7′-ethoxy-7′-((9aS)-hexahydropyrazino[2,1-c][1,4]oxazin-8(1H)-ylmethyl)-11′,12′-dimethyl-3,4-dihydro-2H, 15′H-spiro[naphthalene-1,22′-[20]oxa[13]thia[1,14]diazatetracyclo[14.7.2.0-3,6˜.0˜19,24˜]pentacosa[8,16,18,24]tetraen]-15′-one 13′,13′-dioxide] | – | 0.423 | – |
| C[C@@H]1[C@@H](C)C/C=C/[C@@]2(CN(C)CCO2)[C@@H]2CC[C@H]2CN2C[C@@]3(CCCc4cc(Cl)ccc43)COc3ccc(cc32)C(=O)NS1(=O)=O [Example 124, (1S,3′R,6′R,7′S,8′E, 11′S,12′R)-6-chloro-4″,11′,12′-trimethyl-3,4-dihydro-2H,15′H-dispiro[naphthalene-1,22′-[20]oxa[13]thia[1,14]diazatetracyclo[14.7.2.0-3,6˜.0˜19,24˜]pentacosa[8,16,18,24]tetraene-7′,2″-[1,4]oxazinan]-15′-one 13′,13′-dioxide] | – | 0.646 | – |
| CC(C)N1CCO[C@]2(/C=C/C[C@H](C)[C@@H](C)S(=O)(=O)NC(=O)c3ccc4c(c3)N(C[C@@H]3CC[C@H]32)C[C@@]2(CCCc3cc(Cl)ccc32)CO4)C1 [Example 127, (1 S,3′R,6′R,7′S,8′E, 11′S,12′R)-6-chloro-11′,12′-dimethyl-4″-(1-methylethyl)-3,4-dihydro-2H,15′H-dispiro[naphthalene-1,22′-[20]oxa[13]thia[1,14]diazatetracyclo[14.7.2.0-3,6˜.0˜19,24˜]pentacosa[8,16,18,24]tetraene-7′,2″-[1,4]oxazinan]-15′-one 13′,13′-dioxide] | – | 0.395 | – |
| C[C@@H]1[C@@H](C)C/C=C/[C@]2(CN(C)CCO2)[C@@H]2CC[C@H]2CN2C[C@@]3(CCCc4cc(Cl)ccc43)COc3ccc(cc32)C(=O)NS1(=O)=O [Example 130] | – | 0.92 | – |
| C[C@@H]1[C@@H](C)C/C=C/[C@]2(CN3CCOC[C@@H]3CO2)[C@@H]2CC[C@H]2CN2C[C@@]3(CCCc4cc(Cl)ccc43)COc3ccc(cc32)C(=O)NS1(=O)=O [Example 131] | – | 0.249 | – |
| C[C@@H]1CS(=O)(=O)NC(=O)c2ccc3c(c2)N(C[C@@H]2CC[C@H]2[C@](O)(CN2CCN4CCOC[C@@H]4C2)CC[C@@H]1C)C[C@@]1(CCCc2cc(Cl)ccc21)CO3 [Example 405, (1S,3′R,6′R,7′S,10′S,11′S)-6-chloro-7′-((9aS)-hexahydropyrazino[2,1-c][1,4]oxazin-8(1H)-ylmethyl)-7′-hydroxy-10′,11′-dimethyl-3,4-dihydro-2H, 15′H-spiro[naphthalene-1,22′-[20]oxa[13]thia[1,14]diazatetracyclo[14.7.2.0-3,6˜.0˜19,24˜]pentacosa[16,18,24]trien]-15′-one 13′,13′-dioxide] | – | 0.057 | – |
| CCO[C@]1(CN2CCN(C(C)C)[C@H](C)C2)CCC[C@H](C)[C@@H](CCOC)S(=O)(=O)NC(=O)c2ccc3c(c2)N(C[C@@H]2CC[C@H]21)C[C@@]1(CCCc2cc(Cl)ccc21)CO3 [Example 519, (1S,3′R,6′R,7′R,11′S,12′R)-6-chloro-7′-ethoxy-12′-(2-methoxyethyl)-11′-methyl-7′-(((3R)-3-methyl-4-(2-propanyl)-1-piperazinyl)methyl)-3,4-dihydro-2H, 15′H-spiro[naphthalene-1,22′-[20]oxa[13]thia[1,14]diazatetracyclo[14.7.2.0-3,6˜.0˜19,24˜]pentacosa[16,18,24]trien]-15′-one 13′,13′-dioxide] | – | 0.157 | – |
| CO[C@@]1(CO)/C=C/C[C@H](C)[C@@H](C)S(=O)(=O)NC(=O)c2ccc3c(c2)N(C[C@@H]2CC[C@H]21)C[C@@]1(CCCc2cc(Cl)ccc21)CO3 [Example 100001, (1 S,3′R,6′R,7′S, 8′E,11′S, 12′R)-6-chloro-7′-(hydroxymethyl)-7′-methoxy-11′,12′-dimethyl-3,4-dihydro-2H, 15′H-spiro[naphthalene-1,22′-[20]oxa[13]thia[1,14]diazatetracyclo[14.7.2.˜3,6˜.0˜19,24˜]pentacosa[8,16,18,24]tetraen]-15′-one 13′,13′-dioxide] | 0.055 | – | – |
| O=C1NS(=O)(=O)CCCCC[C@](O)(CO)[C@@H]2CC[C@H]2CN2C[C@@]3(CCCc4cc(Cl)ccc43)COc3ccc1cc32 [Example 100021, (1S,3′R,6′R,7′R)-6-chloro-7′-hydroxy-7′-(hydroxymethyl)-3,4-dihydro-2H,15′H-spiro[naphthalene-1,22′-[20]oxa[13]thia[1,14]diazatetracyclo [14.7.2.0~3,6~.0~19,24~]pentacosa[16,18,24]trien]-15′-one 13′,13′-dioxide] | 1.05 | – | – |
| O=C1NS(=O)(=O)CCCCC[C@@](O)(CO)[C@@H]2CC[C@H]2CN2C[C@@]3(CCCc4cc(Cl)ccc43)COc3ccc1cc32 [Example 100022, (1S,3′R,6′R,7′S)-6-chloro-7′-hydroxy-7′-(hydroxymethyl)-3,4-dihydro-2H,15′H-spiro[naphthalene-1,22′-[20]oxa[13]thia[1,14]diazatetracyclo [14.7.2.0~3,6~.0~19,24~]pentacosa[16,18,24]trien]-15′-one 13′,13′-dioxide] | 0.861 | – | – |
| C[C@]1(O)CCCCCS(=O)(=O)NC(=O)c2ccc3c(c2)N(C[C@@H]2CC[C@H]21)C[C@@]1(CCCc2cc(Cl)ccc21)CO3 [Example 100023, (1S,3′R,6′R,7′S)-6-chloro-7′-hydroxy-7′-methyl-3,4-dihydro-2H,15′H-spiro[naphthalene-1,22′-[20]oxa[13]thia[1,14]diazatetracyclo [14.7.2.0~3,6~.0~19,24~]pentacosa[16,18,24]trien]-15′-one 13′,13′-dioxide] | 3.94 | – | – |
| C[C@@]1(O)CCCCCS(=O)(=O)NC(=O)c2ccc3c(c2)N(C[C@@H]2CC[C@H]21)C[C@@]1(CCCc2cc(Cl)ccc21)CO3 [Example 100024, (1S,3′R,6′R,7′R)-6-chloro-7′-hydroxy-7′-methyl-3,4-dihydro-2H,15′H-spiro[naphthalene-1,22′-[20]oxa[13]thia[1,14]diazatetracyclo [14.7.2.0~3,6~.0~19,24~]pentacosa[16,18,24]trien]-15′-one 13′,13′-dioxide] | 6.16 | – | – |
| COC(=O)[C@H](NC(=O)C[C@]1(OC)/C=C/C[C@H](C)[C@@H](C)S(=O)(=O)NC(=O)c2ccc3c(c2)N(C[C@@H]2CC[C@H]21)C[C@@]1(CCCc2cc(Cl)ccc21)CO3)C(C)=O [Example 100582] | – | – | IC50 [2]: 1120 nM |
| CO[C@@]1(CC(N)=O)/C=C/C[C@H](C)[C@@H](C)S(=O)(=O)NC(=O)c2ccc3c(c2)N(C[C@@H]2CC[C@H]21)C[C@@]1(CCCc2cc(Cl)ccc21)CO3 [Example 100589, 2-((1S,3′R,6′R,7′S,8′E,11′S,12′R)-6-chloro-7′-methoxy-11′,12′-dimethyl-13′,13′-dioxido-15′-oxo-3,4-dihydro-2H-spiro[naphthalene-1,22′-[20]oxa[13]thia[1,14]diazatetracyclo [14.7.2.0~3,6~.0~19,24~]pentacosa[8,16,18,24]tetraen]-7′-yl)acetamide] | – | – | IC50 [2]: 3330 nM |
